{"source": "paper PMC7769561", "about": "“Antileishmanial activity of synthetic analogs of the naturally occurring quinolone alkaloid N-methyl-8-methoxyflindersin” (PLoS ONE, 2020)", "key": {"[1]": {"test_system": "L. (V.) panamensis-infected hMDMs", "assay": "NO production in L. (V.) panamensis-infected hMDMs (DAF-FM flow cytometry)", "type": "cell-based, human", "conditions": "compound at EC50, 24, 48 and 72 h", "protocol": "Next, we detached the cells with ethylenediaminetetraacetic acid (EDTA)/trypsin (Lonza, MD, USA) and 2',7'-dichlorodihydrofluorescein diacetate (H2DCFDA) tagged on a 5 μM fluorescent tube (Sigma-Aldrich) in order to identify intracellular ROS and/or 4-amino-5-methylamino-2′,7′-difluorofluorescein (DAF-FM; Sigma-Aldrich) for NO production in a 5% CO2 atmosphere for 45 min at 37°C. ROS and NO were quantified using flow cytometry (FACS Canto II) at a wavelength of 480 nm. Untreated cells were used as negative controls, while cells treated with 0.0001% H2O2 and 1 μM phorbol myristate acetate were used as ROS production (positive) controls. LPS (10 ng/mL) and phytohemagglutinin (PHA-M) (10 μL/mL) (Invitrogen) were used as positive controls for NO production."}, "[2]": {"test_system": "L. (V.) panamensis intracellular amastigotes", "assay": "Antileishmanial activity in L. (V.) panamensis intracellular amastigotes in hMDMs", "type": "cell-based, Leishmania (Viannia) panamensis", "protocol": "Next, 100 μL of the suspension was cultured in 96-well plates and infected with L. (V.) panamensis promastigotes (HMOM/COL/87/UA-140) at a 10:1 parasite:cell ratio. We incubated the plates in a 5% CO2 atmosphere for 4 h at 35°C. After incubation, we removed noninternalized parasites by washing the cells with 0.9% NaCl saline solution (Baxter International, Deerfield, IL, USA). The cells were incubated again for 24 h and then treated with each quinoline alkaloid–like compound at a concentration of 100, 10, 1, 0.1, and 0.01 μg/mL in a 5% CO2 atmosphere for 72 h at 36°C. Next, we quantified the percentage of infected cells using fluorescence microscopy, as previously described by Pérez-Cordero in 2011 [23], and quantified the parasite load (amount of intracellular promastigotes and amastigotes per cell) using Giemsa staining and flow cytometry (Cytomics FC 500 MPL; Beckman Coulter, Brea, CA, USA). […] Results were expressed as EC50 using Prism GraphPad software’s probit nonlinear regression analysis (https://www.graphpad.com/scientific-software/prism/).\nWe used GraphPad Prism nonlinear regression analysis to estimate the percentage mortality with regard to CC50 and EC50. […] The antileishmanial activity with regard to promastigotes was classified as active according to Eq 2: Active=EC50<[LC50/2], (2) where LC50 is the median lethal concentration. We also used GraphPad Prism nonlinear regression analysis to determine the intracellular antileishmanial activity (concentration vs. response), depending on the infection (number of infected cells) and parasite burden (number of parasites/cell) obtained in experimental conditions. Parasite inhibition was estimated using Eq 3, where the plate MFI is 100% parasites: Infectioninhibition(%)=100−[(MIFexposedparasites/MIFunexposedparasites×100)] (3)\nThe percentage inhibition was used to calculate EC50 by nonlinear regression analysis (fluorescence microscopy), while the parasite burden was evaluated as the percentage of intracellular promastigotes and amastigotes in 100 infected cells (Giemsa staining). […] The selectivity index (SI) was estimated using the following formula: SI=CC50/EC50"}, "[3]": {"test_system": "L. (V.) panamensis (MHOM/COL/87/UA140-EGFP)", "assay": "Therapeutic in vivo response in hamsters with experimental cutaneous leishmaniasis", "parameters": "species or system golden hamster (Mesocrisetus auratus)", "excerpt": "We used a golden hamster (Mesocrisetus auratus) model to evaluate the therapeutic response of synthetic alkaloid compounds 2 and 8. Male and female 6-week-old hamsters with a mean live weight (LW) of 120 g were infected by a dorsal intradermic injection of L. (V.) panamensis (MHOM/COL/87/UA140-EGFP) promastigotes. After the infected hamsters developed ulcers, they were randomly divided into three groups (n = 6 each) and treated topically with 1% ointment formulated from compounds 2 and 8.\n(§1) The hamsters were monitored every 4 weeks to assess their appearance and weight and the lesion size. We categorized each compound’s effectiveness pre- and posttreatment as follows: (i) cure (complete disappearance of lesions), (ii) improvement (>10% reduced lesion area), and (iii) therapeutic failure or nonresponse (increased lesion size). The health status was monitored weekly for 3 months (12 weeks) posttreatment. After 3 months, the hamsters were euthanized in a CO2 chamber. We performed histopathological analysis after necropsy of the affected tissues and organs. In addition, we evaluated treatment cytotoxicity using LW monitoring and biochemical parameters (alanine aminotransferase [ALT], creatinine, and blood urea nitrogen [BUN]) pretreatment and 45 days after ointment administration.\nThe in vivo efficacy of compounds 1, 2, and 8 was expressed as a percentage cure, improvement, or nonresponse compared to the beginning of treatment. Efficacy was evaluated in vivo to compare percentages, the frequency of change, and treatment cytotoxicity in the hamster model. We used GraphPad Prism to determine ROS and NO production and the apoptotic cell percentage. One- or two-way analysis of variance (ANOVA; response–time kinetics) was used to compare treatments after confirming normal data distribution. P < 0.05 was considered statistically significant by comparing untreated cells (experiments on untreated hMDMs) with infected cells (experiments on untreated and treated hMDMs)."}, "[4]": {"test_system": "L. (V.) panamensis intracellular amastigotes", "assay": "Transmission electron microscopy of L. (V.) panamensis intracellular amastigotes in hMDMs", "type": "cell-based, Leishmania (Viannia) panamensis", "parameters": "Nucleus (ultrastructural alteration grade) / Vacuoles (ultrastructural alteration grade): key: -: no alteration/absence; +: low alteration/low presence; ++: alteration/moderate presence; +++: serious disturbance/abundant presence", "conditions": "compound at EC50, 72 h, TEM", "excerpt": "(§2) This procedure involved including fresh resin and 100–200-nm-wide ultrafine cuts observed by TEM (100X–10.000X) (HITACHI-HU-12; Hitachi, Tokyo, Japan)."}, "[5]": {"test_system": "L. (V.) panamensis-infected hMDMs", "assay": "Transmission electron microscopy of L. (V.) panamensis-infected hMDMs", "type": "cell-based, human", "conditions": "compound at EC50, 72 h, TEM", "excerpt": "as §2"}, "[6]": {"assay": "Treatment toxicity in hamsters (live weight, ALT, creatinine, BUN)", "type": "in vivo, golden hamster (Mesocrisetus auratus)", "conditions": "topical 1% ointment", "excerpt": "as §1"}, "[7]": {"conditions": "amastigotes in hMDMs, 72 h, ± SD"}, "[8]": {"conditions": "hamsters, topical 1% ointment, 3 months posttreatment, n = 6"}}, "note": "Values joined by “and” are separate entries in the source; they are usually repeats but may differ in a detail not shown here. Equal entries are not always repeated. Wherever Cell membrane (ultrastructural alteration grade) is given: key: -: no alteration/absence; +: low alteration/low presence; ++: alteration/moderate presence; +++: serious disturbance/abundant presence. Wherever Flagellum (flagellar/axonema pocket) (grade) is given: key: -: no alteration/absence; +: low alteration/low presence; ++: alteration/moderate presence; +++: serious disturbance/abundant presence. Wherever LB (lipid bodies, grade) is given: key: -: no alteration/absence; +: low alteration/low presence; ++: alteration/moderate presence; +++: serious disturbance/abundant presence. Wherever Mitochondria/Kinetoplasts (ultrastructural alteration grade) is given: key: -: no alteration/absence; +: low alteration/low presence; ++: alteration/moderate presence; +++: serious disturbance/abundant presence."}
{"substance": "1,2,3,4-tetrahydro(benzo)-3-quinolin-ol [Compound 2]", "values": [{"measurement": "NO production compared to untreated infected hMDMs", "setting": "[1]", "result": "do not modulate the induction of NO production"}, {"measurement": "SI (selectivity index = CC50/EC50)", "setting": "[2]; CC50 hMDMs / EC50 intracellular amastigotes", "result": "3.64 and > 3"}, {"measurement": "EC50", "setting": "[2]; [7]", "result": 26, "unit": "µM"}, {"measurement": "EC50 Intracellular amastigotes", "setting": "[2]; [7]", "result": "5.2 ± 0.9", "unit": "mg/L"}, {"measurement": "Antileishmanial activity class", "setting": "[2]; intracellular amastigotes, class by EC50", "result": "high (high if EC50 < 25 μg/mL)"}, {"measurement": "Histopathologic analysis of the skin, cured hamsters", "setting": "[3]; hamsters cured by treatment, hematoxylin/eosin", "result": "moderate orthokeratotic hyperkeratosis and low mononuclear leukocyte infiltration"}, {"measurement": "Histopathologic analysis of the skin, hamsters showing improvement", "setting": "[3]; hamsters showing improvement, hematoxylin/eosin", "result": "severe leukocyte infiltratation and abundant L. (V.) panamensis being phagocytosed by hMDMs"}, {"measurement": "Lesion size during treatment", "setting": "[3]; hamsters, topical 1% ointment", "result": "significantly reduced lesions"}, {"measurement": "Improvement (reduced lesion size), percentage of the experimental group", "setting": "[3]; [8]", "result": 66.6, "unit": "%"}, {"measurement": "Total cure (healing), percentage of the experimental group", "setting": "[3]; [8]", "result": 33.3, "unit": "%"}, {"measurement": "Cell membrane (ultrastructural alteration grade)", "setting": "[4]", "result": "-"}, {"measurement": "Flagellum (flagellar/axonema pocket) (description)", "setting": "[4]", "result": "Multiple organelles"}, {"measurement": "Flagellum (flagellar/axonema pocket) (grade)", "setting": "[4]", "result": "++"}, {"measurement": "LB (lipid bodies, grade)", "setting": "[4]", "result": "+++"}, {"measurement": "Mitochondria/Kinetoplasts (description)", "setting": "[4]", "result": "Multiple organelles"}, {"measurement": "Mitochondria/Kinetoplasts (ultrastructural alteration grade)", "setting": "[4]", "result": "++"}, {"measurement": "Nucleus (description)", "setting": "[4]", "result": "Abnormal distribution of chromatine"}, {"measurement": "Nucleus (ultrastructural alteration grade)", "setting": "[4]", "result": "++"}, {"measurement": "PV (description)", "setting": "[4]", "result": "Multiple"}, {"measurement": "PV (parasitophorous vacuoles, grade)", "setting": "[4]", "result": "+"}, {"measurement": "Vacuoles (description)", "setting": "[4]", "result": "Double membrane (autophagic-digestives)"}, {"measurement": "Vacuoles (ultrastructural alteration grade)", "setting": "[4]", "result": "+++"}, {"measurement": "Cell membrane (ultrastructural modification grade)", "setting": "[5]", "result": "-"}, {"measurement": "LB (lipid bodies, grade)", "setting": "[5]", "result": "+++"}, {"measurement": "Mitochondria (ultrastructural modification grade)", "setting": "[5]", "result": "+"}, {"measurement": "Nucleus (ultrastructural modification grade)", "setting": "[5]", "result": "-"}, {"measurement": "PV (description)", "setting": "[5]", "result": "Multiple parasites per vacuole"}, {"measurement": "PV (parasitophorous vacuoles, grade)", "setting": "[5]", "result": "+"}, {"measurement": "Parasites (grade)", "setting": "[5]", "result": "++"}, {"measurement": "Vacuoles (ultrastructural modification grade)", "setting": "[5]", "result": "-"}, {"measurement": "Cytotoxicity-related clinical manifestations", "setting": "[6]", "result": "No cytotoxicity-related clinical manifestations"}, {"measurement": "Live weight posttreatment", "setting": "[6]", "result": "no evident changes during treatment"}]}
